# Measured values taken from patent US9409908B2 (priority 2012, dated 2016).
# Counter-ions that a name gives are not always drawn. Like-named read-outs stand apart in the source and are kept apart here.
# How the values were obtained:
# [1] = target: purified human Factor XIa (Homo sapiens (Human), UniProt P03951); experiment: biochemical; type: biochemical; details: read-out: Factor XIa Ki
# [2] = target: purified human plasma kallikrein (Homo sapiens (Human), UniProt P03952); experiment: biochemical; type: biochemical; details: read-out: Plasma Kallikrein Ki
# purified human plasma kallikrein, sequence (P03952 whole entry, looked up): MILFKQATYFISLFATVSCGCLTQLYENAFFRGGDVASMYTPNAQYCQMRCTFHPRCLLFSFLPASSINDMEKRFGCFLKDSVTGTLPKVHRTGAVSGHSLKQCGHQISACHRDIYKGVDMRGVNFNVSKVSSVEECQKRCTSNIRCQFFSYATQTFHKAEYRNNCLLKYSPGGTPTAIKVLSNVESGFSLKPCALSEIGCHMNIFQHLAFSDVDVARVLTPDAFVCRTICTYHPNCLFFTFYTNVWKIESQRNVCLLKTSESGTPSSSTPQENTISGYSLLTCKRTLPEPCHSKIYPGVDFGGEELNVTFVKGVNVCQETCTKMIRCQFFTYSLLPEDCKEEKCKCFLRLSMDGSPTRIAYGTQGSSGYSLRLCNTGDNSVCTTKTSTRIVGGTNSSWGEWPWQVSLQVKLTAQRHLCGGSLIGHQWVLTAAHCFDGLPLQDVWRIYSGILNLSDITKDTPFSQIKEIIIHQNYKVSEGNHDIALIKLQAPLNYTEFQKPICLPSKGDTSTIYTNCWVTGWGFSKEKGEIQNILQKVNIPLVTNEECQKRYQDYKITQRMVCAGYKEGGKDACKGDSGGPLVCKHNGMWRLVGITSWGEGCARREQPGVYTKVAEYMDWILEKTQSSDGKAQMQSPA
# purified human plasma kallikrein, sequence (P03952 whole entry partner, looked up): as the sequence (P03952 whole entry, looked up) above
# purified human Factor XIa, sequence (P03951 whole entry, looked up): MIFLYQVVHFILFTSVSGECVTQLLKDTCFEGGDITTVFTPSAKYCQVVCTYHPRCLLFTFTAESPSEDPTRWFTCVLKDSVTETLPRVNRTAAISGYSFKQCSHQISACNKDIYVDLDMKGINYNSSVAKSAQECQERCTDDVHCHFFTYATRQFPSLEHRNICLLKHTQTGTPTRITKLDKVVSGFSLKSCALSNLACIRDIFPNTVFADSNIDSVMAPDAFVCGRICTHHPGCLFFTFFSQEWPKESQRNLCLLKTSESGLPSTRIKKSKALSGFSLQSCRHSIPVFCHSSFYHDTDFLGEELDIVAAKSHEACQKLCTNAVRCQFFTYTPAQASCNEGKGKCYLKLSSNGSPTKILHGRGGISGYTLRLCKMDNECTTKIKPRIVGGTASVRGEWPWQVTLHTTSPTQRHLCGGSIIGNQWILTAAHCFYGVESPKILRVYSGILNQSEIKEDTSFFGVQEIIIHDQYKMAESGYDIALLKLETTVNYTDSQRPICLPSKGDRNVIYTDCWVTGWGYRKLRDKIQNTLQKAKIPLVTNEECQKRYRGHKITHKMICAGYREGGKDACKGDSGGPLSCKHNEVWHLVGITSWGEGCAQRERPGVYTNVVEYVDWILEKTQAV
# purified human Factor XIa, sequence (P03951 whole entry partner, looked up): as the sequence (P03951 whole entry, looked up) above
SMILES,Ki [1] [nM],Ki [2] [nM],Ki ([1]; TFA salt) [nM],Ki ([2]; TFA salt) [nM]
"COC(=O)Nc1ccc2c(c1)NC(=O)[C@H](C)CCC[C@H](N1CCC(C3CCCCN3C)=CC1=O)c1cc-2ccn1 (stereo partly drawn) [Example 158, Methyl N-[(10R,14S)-10-methyl-14-[4-(1-methylpiperidin-2-yl)-6-oxo-1,2,3,6-tetrahydropyridin-1-yl]-9-oxo-8,16-diazatricyclo[13.3.1.0^2,7]nonadeca-1(19),2,4,6,15,17-hexaen-5-yl]carbamate, 2 TFA salt]",> 404,10900,–,–
"COC(=O)Nc1ccc2c(c1)NC(=O)[C@H](C)CCC[C@H](N1CCC(C3CCCC(C)C3)=CC1=O)c1cc-2ccn1 (single isomer, unassigned) [Example 225, TFA salt]",–,–,26.1,95.5
"COC(=O)Nc1ccc2c(c1)NC(=O)[C@H](C)CCC[C@H](N1CCC(C3CCCCC3)=CC1=O)c1cc-2ccn1 [Example 98, Methyl N-[(10R,14S)-14-(4-cyclohexyl-6-oxo-1,2,3,6-tetrahydropyridin-1-yl)-10-methyl-9-oxo-8,16-diazatricyclo[13.3.1.0^2,7]nonadeca-1(19),2,4,6,15,17-hexaen-5-yl]carbamate, TFA salt]",30.1,36,–,–
"COC(=O)Nc1ccc2c(c1)C(=O)NCCCCC[C@H](N1CCC(c3c(F)ccc(Cl)c3F)=CC1=O)c1cc-2ccn1 [Example 152, Methyl N-[(15S)-15-[4-(3-chloro-2,6-difluorophenyl)-6-oxo-1,2,3,6-tetrahydropyridin-1-yl]-8-oxo-9,17-diazatricyclo[14.3.1.0^2,7]icosa-1(20),2(7),3,5,16,18-hexaen-5-yl]carbamate, TFA salt]",25.6,24.3,–,–
"Cc1ccc2c(c1)-c1ccnc(c1)[C@@H](N1CCC(c3c(F)ccc(Cl)c3F)=CC1=O)CCC[C@@H](C)C(=O)N2 [Example 141, (10R,14S)-14-[4-(3-chloro-2,6-difluorophenyl)-6-oxo-1,2,3,6-tetrahydropyridin-1-yl]-4,10-dimethyl-8,16-diazatricyclo[13.3.1.0^2,7]nonadeca-1(19),2(7),3,5,15,17-hexaen-9-one]",98.9,123,–,–
"C[C@@H]1CCC[C@H](N2CCC(c3c(F)ccc(Cl)c3F)=CC2=O)c2cc(ccn2)-c2ccc(NC3O[C@H](CO)[C@@H](O)[C@H](O)[C@@H]3O)cc2NC1=O (stereo partly drawn) [Example 125, (10R,14S)-14-[4-(3-chloro-2,6-difluorophenyl)-6-oxo-1,2,3,6-tetrahydropyridin-1-yl]-10-methyl-5-{[(3S,4S,5S,6R)-3,4,5-trihydroxy-6-(hydroxymethyl)oxan-2-yl]amino}-8,16-diazatricyclo[13.3.1.0^2,7]nonadeca-1(19),2,4,6,15,17-hexaen-9-one]",15.2,11.6,–,–
"CC(C)[C@@H]1CCC[C@H](N2CCC(c3c(F)ccc(Cl)c3F)=CC2=O)c2cc(ccn2)-c2ccccc2NC1=O [Example 95, (10S,14S)-14-[4-(3-chloro-2,6-difluorophenyl)-6-oxo-1,2,3,6-tetrahydropyridin-1-yl]-10-(propan-2-yl)-8,16-diazatricyclo[13.3.1.0^2,7]nonadeca-1(18),2,4,6,15(19),16-hexaen-9-one, TFA salt]",46.5,107,–,–
"COC(=O)Nc1ccc2c(c1)NC(=O)[C@H](C)CCC[C@H](N1CCC(C3CCNCC3)=CC1=O)c1cc-2ccn1 [Example 155, Methyl N-[(10R,14S)-10-methyl-9-oxo-14-[6-oxo-4-(piperidin-4-yl)-1,2,3,6-tetrahydropyridin-1-yl]-8,16-diazatricyclo[13.3.1.0^2,7]nonadeca-1(19),2,4,6,15,17-hexaen-5-yl]carbamate, 2 TFA salt]",4.88,199,–,–
"COC(=O)Nc1ccc2c(c1)NC(=O)[C@H](C)CCC[C@H](N1CCC(c3c(F)cccc3C#N)=CC1=O)c1cc-2ccn1 [Example 4, Methyl N-[(10R,14S)-14-[4-(2-cyano-6-fluorophenyl)-6-oxo-1,2,3,6-tetrahydropyridin-1-yl]-10-methyl-9-oxo-8,16-diazatricyclo[13.3.1.0^2,7]nonadeca-1(19),2,4,6,15,17-hexaen-5-yl]carbamate, TFA salt]",2.64,1,–,–
"CC1CCC[C@H](N2CCC(c3c(C(F)(F)F)ccc(Cl)c3F)=CC2=O)c2cc(ccn2)-c2ccc(C(=O)O)cc2NC1=O (stereo partly drawn) [Example 106, (14S)-14-{4-[3-Chloro-2-fluoro-6-(trifluoromethyl)phenyl]-6-oxo-1,2,3,6-tetrahydropyridin-1-yl}-10-methyl-9-oxo-8,16-diazatricyclo[13.3.1.0^2,7]nonadeca-1(18),2,4,6,15(19),16-hexaene-5-carboxylic acid, TFA salt]",> 342,890,–,–
"COC(=O)c1cccc2c1-c1ccnc(c1)[C@@H](N1CCC(c3c(F)ccc(Cl)c3F)=CC1=O)CCC[C@@H](C)C(=O)N2 [Example 213, Methyl (10R,14S)-14-[4-(3-chloro-2,6-difluorophenyl)-6-oxo-1,2,3,6-tetrahydropyridin-1-yl]-10-methyl-9-oxo-8,16-diazatricyclo[13.3.1.0^2,7]nonadeca-1(19),2(7),3,5,15,17-hexaene-3-carboxylate, TFA salt]",> 413,3370,–,–
"C[C@@H]1CCC[C@H](N2CCC(c3c(C(F)(F)F)ccc(Cl)c3F)=CC2=O)c2cc(ccn2)-c2cc(C(=O)O)ccc2NC1=O [Example 187, (10R,14S)-14-{4-[3-chloro-2-fluoro-6-(trifluoromethyl)phenyl]-6-oxo-1,2,3,6-tetrahydropyridin-1-yl}-10-methyl-9-oxo-8,16-diazatricyclo[13.3.1.0^2,7]nonadeca-1(19),2(7),3,5,15,17-hexaene-4-carboxylic acid]",0.44,17.4,–,–
"COC(=O)Nc1ccc2c(c1)NC(=O)[C@H](C)CCC[C@H](N1CCC(c3nccc(Cl)c3F)=CC1=O)c1cc-2cc(OC)n1 [Example 5, Methyl N-[(10R,14S)-14-[4-(4-chloro-3-fluoropyridin-2-yl)-6-oxo-1,2,3,6-tetrahydropyridin-1-yl]-17-methoxy-10-methyl-9-oxo-8,16-diazatricyclo[13.3.1.0^2,7]nonadeca-1(18),2,4,6,15(19),16-hexaen-5-yl]carbamate, TFA salt]",2,3,–,–
"COC(=O)Nc1ccc2c(c1)NC(=O)[C@H](C)CCC[C@H](N1CCC(c3c(F)ccc(Br)c3F)=CC1=O)c1cc-2ccn1 [Example 190, Methyl N-[(10R,14S)-14-[4-(3-bromo-2,6-difluorophenyl)-6-oxo-1,2,3,6-tetrahydropyridin-1-yl]-10-methyl-9-oxo-8,16-diazatricyclo[13.3.1.0^2,7]nonadeca-1(19),2,4,6,15,17-hexaen-5-yl]carbamate]",0.27,1.11,–,–
"COC(=O)Nc1ccc2c(c1)NC(=O)[C@H](C)CCC[C@H](N1CCC(c3ccc(OC)cc3)=CC1=O)c1cc-2ccn1 [Example 117, Methyl N-[(10R,14S)-14-[4-(4-methoxyphenyl)-6-oxo-1,2,3,6-tetrahydropyridin-1-yl]-10-methyl-9-oxo-8,16-diazatricyclo[13.3.1.0^2,7]nonadeca-1(18),2,4,6,15(19),16-hexaen-5-yl]carbamate]",> 398,> 13000,–,–
"C[C@@H]1CCC[C@H](N2CCC(c3c(F)ccc(Cl)c3F)=CC2=O)c2cc(cc[n+]2[O-])-c2ccc(N)cc2NC1=O [Example 70, (10R,14S)-5-Amino-14-[4-(3-chloro-2,6-difluorophenyl)-6-oxo-1,2,3,6-tetrahydropyridin-1-yl]-10-methyl-9-oxo-8,16-diazatricyclo[13.3.1.0^2,7]nonadeca-1(19),2,4,6,15,17-hexaen-16-ium-16-olate, TFA salt]",8.02,18,–,–
"C[C@@H]1CCC[C@H](N2CCC(c3c(Br)ccc(Cl)c3F)=CC2=O)c2cc(ccn2)-c2c(F)cc(F)cc2NC1=O [Example 202, (10R,14S)-14-[4-(6-bromo-3-chloro-2-fluorophenyl)-6-oxo-1,2,3,6-tetrahydropyridin-1-yl]-3,5-difluoro-10-methyl-8,16-diazatricyclo[13.3.1.0^2,7]nonadeca-1(19),2(7),3,5,15,17-hexaen-9-one]",8.56,30.1,–,–
"COC(=O)Nc1ccc2c(c1)NC(=O)[C@H](C)CCC[C@H](N1CCC(C3CCCC(C)C3)=CC1=O)c1cc-2ccn1 (single isomer, unassigned) [Example 153, TFA salt]",–,–,20,21.2
"C[C@@H]1CCC[C@H](N2CCC(c3c(-c4ccncc4)ccc(Cl)c3F)=CC2=O)c2cc(ccn2)-c2ccccc2NC1=O [Example 56, (10R,14S)-14-{4-[3-Chloro-2-fluoro-6-(pyridin-4-yl)phenyl]-6-oxo-1,2,3,6-tetrahydropyridin-1-yl}-10-methyl-8,16-diazatricyclo[13.3.1.0^2,7]nonadeca-1(19),2,4,6,15,17-hexaen-9-one, TFA salt]",16.5,137,–,–
"C[C@@H]1CCC[C@H](N2CCC(c3c(F)cccc3C#N)=CC2=O)c2cc(ccn2)-c2ccccc2NC1=O [Example 50, 3-Fluoro-2-{1-[(10R,14S)-10-methyl-9-oxo-8,16-diazatricyclo[13.3.1.0^2,7]nonadeca-1(19),2,4,6,15,17-hexaen-14-yl]-6-oxo-1,2,3,6-tetrahydropyridin-4-yl}benzonitrile, TFA salt]",102,130,–,–
"COC(=O)Nc1ccc2c(c1)NC(=O)[C@H](C)CCC[C@H](N1CCC(c3c(C#N)ccc4c(N)n[nH]c34)=CC1=O)c1cc-2cc(OC)n1 [Example 8, Methyl N-[(10R,14S)-14-[4-(3-amino-6-cyano-1H-indazol-7-yl)-6-oxo-1,2,3,6-tetrahydropyridin-1-yl]-17-methoxy-10-methyl-9-oxo-8,16-diazatricyclo[13.3.1.0^2,7]nonadeca-1(18),2,4,6,15(19),16-hexaen-5-yl]carbamate, TFA salt]",> 457,173,–,–
